“And” between values parts separate entries of the source, which are not always exact repeats. Equal entries are not always repeated. Where two headings read alike, the source gives them in different places.
Target: T1, Na+/K+ ATPase (Homo sapiens, UniProt P05023)
T1 construct: An in-vitro cell-based assay was developed to assess the regulation of Na+/K+ ATPase by MBG using HEK293 cells; host or cells: HEK293/hnAChR α3/β4 cells
Assay: Membrane potential assay: MBG inhibition of membrane repolarization
Type: cell-based
Source text: An in-vitro cell-based assay was developed to assess the regulation of Na+/K+ ATPase by MBG using HEK293 cells. HEK293 has Na+/K+ ATPase activity and contains the α1 isoform (Kochskämper et al. 1997, Biochim. Biophys. Acta 1325: 197-208). […] HEK293 cells expressing human neuronal nicotinic acetylcholine receptors (nAChR) subunits α3 and β4 (Accession # M37981 and #NM_000750), HEK293/hnAChR α3/β4 (Millipore) were used. The nAchR heterodimer is a ligand-gated ion channel that mediates influx of Na+ upon ligand binding (Corringer et al. 2000, Annu. Rev. Pharmacol. Toxicol. 40: 431-458). […] MBG was added to inhibit the repolarization of the cell through its effects on Na^+/K^+ ATPase. Changes in the membrane potential of the cells were monitored using a fluorescent dye whose intensity increases when the cells are depolarized and decreases as the cells are repolarized.
For the bioassay, cells were detached with Enzyme Free Cell Dissociation Buffer (Millipore) seeded into 96-well assay plates at 50,000 cells/well in Opti-MEM™ assay buffer supplemented with 0.1% FBS, penicillin/streptomycin and L-glutamine (known from this point forward as Opti-MEM™), and then incubated at 37° C. in 5% CO2 overnight. […] The plate was then placed into the FLIPR^Tetra® (Molecular Devices) and kinetic readings were collected at 25° C. […]

C[C@]12CC[C@H](O)C[C@@]1(O)CC[C@@H]1[C@@H]2CC[C@]2(C)[C@@H](c3ccc(=O)oc3)CC3O[C@@]312 (stereo partly drawn) [MBG, 3β, 5β-dihydroxy-14,15-epoxybufadienolide]
IC50 (IC50 [M] of MBG (@ 100 nM Epibatidine)): 6.6e-07 M and 4.5e-07 M
IC50 (read-out: IC50 of MBG): 7e-07 M and 4.46e-07 M and 6.62e-07 M
